Source: patent US20170196888A1, “COMPOSITIONS AND METHODS FOR TREATING CANCER” (Yeda Research and Development Co. Ltd., priority 2014, published 2017)

Columns and labels:
MCF10A cells [1] = test: Transwell migration assay of EGF-stimulated MCF10A cells; type: cell-based, human; settings: for inhibition of EGF-induced cell migration: MCF10A in transwell, EGF 10 ng/ml, DEX 100 nM, E2 30 nM, PRG 30 nM, MPA 100 nM, 20 hours
Procedure: MCF10A cells were grown as described^16 and stimulated with EGF (10 ng/ml) or DEX (100 nM). siRNA transfections employed Oligofectamine (Invitrogen) and ON-Target SMART (Dharmacon, Lafayette, Colo.) oligonucleotides. Lapatinib (di-p-Toluenesulfonate Salt) was purchased from LC Laboratories. Anti GR antibody for immunostaining (sc-1004, SANTA CRUZ BIOTECHNOLOGY, INC.)
Cells (5×10^4 cell/insert) were plated in the upper compartment of a 24-well transwell tray (Corning, Acton, MA), and their migration was assayed^16. Cell invasion assays were performed using BioCoat Matrigel Invasion Chambers (BD Bioscience, Franklin Lakes, N.J.). For tracking, cells were seeded (3×10^3 cells/cm^2) on collagen-coated micro-slide (from Ibidi). For collective migration, 8×10^4 cells were seeded in plastic insets (Ibidi), and after overnight incubation, the plastic barriers were removed and time-lapse images were recorded.

glucocorticoid receptor = molecular target: T1, glucocorticoid receptor (Homo sapiens, UniProt P04150); settings: cited from earlier work
T1 sequence (P04150 1-777): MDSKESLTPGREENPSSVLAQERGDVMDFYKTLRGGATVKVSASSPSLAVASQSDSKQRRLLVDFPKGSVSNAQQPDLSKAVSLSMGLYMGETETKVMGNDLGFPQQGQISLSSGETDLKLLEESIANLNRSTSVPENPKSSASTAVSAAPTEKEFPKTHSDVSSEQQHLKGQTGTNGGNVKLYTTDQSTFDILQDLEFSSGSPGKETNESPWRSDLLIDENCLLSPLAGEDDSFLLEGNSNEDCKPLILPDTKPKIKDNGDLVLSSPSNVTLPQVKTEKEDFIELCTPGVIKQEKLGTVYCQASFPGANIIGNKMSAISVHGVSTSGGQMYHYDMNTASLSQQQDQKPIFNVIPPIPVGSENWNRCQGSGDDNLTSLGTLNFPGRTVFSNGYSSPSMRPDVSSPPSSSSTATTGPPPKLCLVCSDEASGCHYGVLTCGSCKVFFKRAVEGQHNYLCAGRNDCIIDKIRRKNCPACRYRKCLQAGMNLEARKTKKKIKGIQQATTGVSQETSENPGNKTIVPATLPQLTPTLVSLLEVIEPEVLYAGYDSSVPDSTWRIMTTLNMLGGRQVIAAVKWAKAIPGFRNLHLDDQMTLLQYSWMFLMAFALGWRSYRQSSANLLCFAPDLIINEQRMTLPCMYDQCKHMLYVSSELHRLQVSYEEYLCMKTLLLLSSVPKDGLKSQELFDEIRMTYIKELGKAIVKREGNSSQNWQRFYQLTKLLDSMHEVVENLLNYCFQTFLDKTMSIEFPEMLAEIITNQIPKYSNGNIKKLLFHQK

DUSP1 and ERRFI1 = test: qPCR of negative feedback regulators (pre-mRNA and mRNA); type: cell-based, human; settings: serum-starved MCF10A, EGF 10 ng/ml, DEX 100 nM
Procedure: (§1) RNA was isolated using the PerfectPure kit from 5 Prime (Hamburg, Germany). Affymetrix GeneChip Human Exon 1.0 ST arrays were used and data were deposited in Gene Expression Omnibus (GSE53405). PCR of pre-mRNA or mRNA used forward primers positioned in the second intron or exon, respectively (Table 3 below).
(§2) All reactions were performed using Power SYBR Green PCR Master Mix (Applied Biosystems, Foster City, CA). For high throughput PCR the Fluidigm® BioMark system was employed. The Affymetrix Expression Console was used for analyses of DNA-arrays, as described^51.
Analyses of defects in vulva formation in worms and aberrations in eye development in insects, two processes controlled by EGFR, helped define several evolutionary conserved and partly redundant negative feedback loops able to robustly terminate EGFR signalling^21. Since Module A (EGF^UP/DEX^UP) includes several orthologs of the invertebrate negative feedback loops, three of them were selected for further analysis. DUSP1 is the prototype of MAPK-specific phosphatases, which dephosphorylate the shared Thr-Xxx-Tyr motif of MAPKs. ERRFI1/MIG6 (also called RALT) is a previously identified steroid-inducible adaptor, which physically binds and inhibits the kinase domain of EGFR^5. […] By using primers specific for the nascent or the mature transcripts, de novo transcription of these three negative regulators was followed (FIG. 3A). […]

MCF10A cells [2] = test: Annexin V / propidium iodide flow cytometry; type: cell-based, human; settings: MCF10A pre-treated 24 hours with EGF, DEX or the combination
Procedure: FIG. 1J—MCF10A cells pre-treated for 24 hours with of EGF, DEX or the combination. Thereafter, cells were stained for the apoptosis marker annexin V and the necrosis marker propidium iodide (PI), and later assayed using flow cytometry.

EGF-induced genes = test: Affymetrix Exon Array time course of EGF- and DEX-regulated transcripts; type: cell-based, human; settings: at 20 minutes
Procedure: as §1, §2
Conceivably, the inhibitory effect of GR involves alterations of EGF-induced transcription. Specifically, GR might affect transcript synthesis or modulate EGF-induced RNA splicing in MCF10A cells. To address such models, cells were stimulated with EGF, DEX or the combination, mRNAs were isolated along a time course from 20 minutes to four hours, and the RNA was hybridized to Affymetrix Exon Arrays which is able to resolve small changes in splicing^19. In addition, confirmatory PCR analyses are provided.

[3] = test system: MCF10A derivatives stably expressing ERRFI1-specific shRNAs; test: Migration assay of ERRFI1-depleted MCF10A derivatives; type: cell-based, human; settings: ERRFI1-depleted cells
Procedure: FIG. 3A—Serum-starved MCF10A cells were treated with EGF or DEX. qPCR analysis was performed using RNA and primers corresponding to pre-mRNAs (dashed lines) or the mature forms (solid lines). FIG. 3B—A scheme depicting negative feedback regulators of EGFR signalling. FIGS. 3C-D—Cells were stimulated as in A and extracts were immunoblotted for ERRFI1, GR and ERK2. Normalized ERRFI1 signals are shown. FIGS. 3E-F—Active ERK signals (pERK) were determined, normalized and presented. FIG. 3G—MCF10A derivatives stably expressing ERRFI1-specific shRNAs were tested for migration following the indicated treatments. The results were analysed as in FIG. 1D. *p<0.05; ***p<0.0001 (one-way Anova). FIG. 3H—Serum-starved MCF10A cells were pre-incubated for 20 minutes with actinomycin D (1 μg/m1), and thereafter stimulated for the indicated time intervals with EGF or DEX. […] FIG. 3I—The pERK signals from FIG. 3H and additional experiments were quantified, normalized to total ERK2 levels and presented.
Cells (5×10^4 cell/insert) were plated in the upper compartment of a 24-well transwell tray (Corning, Acton, MA), and their migration was assayed^16. […] For collective migration, 8×10^4 cells were seeded in plastic insets (Ibidi), and after overnight incubation, the plastic barriers were removed and time-lapse images were recorded.

[4] = test system: N87 human gastric cancer cells; test: N87 tumor xenograft study with day or night dosing; type: in vivo, mice
Procedure: All animal experiments were approved by the institutional committee. C57BL/6 (CD45.2, Harlan) and knockout animals were maintained under defined flora conditions and at 12 hour light-dark cycles. For daily clock studies, female mice (10-12 week old) were divided into 2 groups; one was maintained in the day-night room, and the second group was located in a special room (with inverted day-light cycles). Mice were let acclimate for at least one week prior to protein and RNA extraction. For tumor xenograft studies, 20 athymic nude (nu/nu) mice were used and maintained in a Specific Pathogen Free environment. Animals (n=10 per group) were inoculated subcutaneously in the left leg (using a sterile 22-gauge needle) with 5×10^6 N87 cells. Mice were randomized into two groups, daily treated with Lapatinib by oral gavage (40 mg/kg) in the night (2 hours after the light off) and in the day (approximately 70 minutes before light on). Treatments were started 2 weeks after cell injection. Tumor width (W) and length (L) were measured once a week with a calliper and tumor volume (V) was calculated according to the formula: V=0.5×W^2×L.

In the case of `CC(=O)O[C@]1(C(C)=O)CC[C@H]2[C@@H]3C[C@H](C)C4=CC(=O)CC[C@]4(C)[C@H]3CC[C@@]21C` [MPA, medroxyprogesterone acetate], the “inhibition of EGF-induced cell migration” value (MCF10A cells [1]) is given as “less potent” and the EC50 (glucocorticoid receptor) is given as ~10 nM.
In the case of `CC(=O)[C@H]1CC[C@H]2[C@@H]3CCC4=CC(=O)CC[C@]4(C)[C@H]3CC[C@]12C` [PRG, progesterone], the “inhibition of EGF-induced cell migration” value (MCF10A cells [1]) is reported as “weak or no activity”.
With “EGF: epidermal growth factor, EGFR ligand used to stimulate MCF10A cells” the “induction of DUSP1 and ERRFI1 transcripts” value (DUSP1 and ERRFI1) was 3-5 fold.
With `C[C@@H]1C[C@H]2[C@@H]3CCC4=CC(=O)C=C[C@]4(C)[C@@]3(F)[C@@H](O)C[C@]2(C)[C@@]1(O)C(=O)CO` [DEX, dexamethasone] the “inhibition of EGF-induced migration” value (MCF10A cells [1]; control cells) was 90%, the “cellular toxicity, markers of apoptosis (annexin V) and necrosis (propidium iodide)” value (MCF10A cells [2]) was “excluded the possibility of cellular toxicity” and the “inhibitory effect on EGF-induced genes, share of maximal capacity” value (EGF-induced genes) was 70%. The “inhibition of EGF-induced migration” value [3] was 30%.
For `CS(=O)(=O)CCNCc1ccc(-c2ccc3ncnc(Nc4ccc(OCc5cccc(F)c5)c(Cl)c4)c3c2)o1` [Lapatinib], the “therapeutic impact on tumor size and weight by time of administration” value ([4]; 40 mg/kg/day oral gavage, just before the resting phase (ZT23) versus beginning of the active phase) was “statistically significant enhancement” and the “tumor angiogenesis (appearance of tumors)” value ([4]; administration during the resting phase) was “inhibited tumor angiogenesis”.
